Literature values as cited in patent US20170326139A1, “COMBINATION THERAPY FOR MALE SEXUAL DYSFUNCTION” (priority 2016, published 2017).
Read-outs that look alike come from different tables or passages of the source.

Key:
[1] = tested on: premature ejaculation
[2] = tested on: premature ejaculation; conditions: in vivo
[3] = tested on: premature ejaculation; remark: listed apart in the source

CN(C)CCCN1c2ccccc2CCc2ccc(Cl)cc21 [clomipramine]
effect in treating PE ([1]; inhaled (nasal) 4 mg or 5 mg on-demand, e.g. one hour pre-coitus): effective in treating PE
effect on IELT ([1]; orally administered daily at 10 to 50 mg per day): effectively increase IELT

CNCC[C@H](Oc1cccc2ccccc12)c1cccs1 [duloxetine]
effect on IELT [2]: some positive effect on IELT

CCCc1nn(C)c2c(=O)[nH]c(-c3cc(S(=O)(=O)N4CCN(C)CC4)ccc3OCC)nc12 [sildenafil]
effect on PE versus placebo ([3]; sildenafil 50 mg pre-coitus administered alone): no better than placebo
IELT ([3]; sildenafil 50 mg pre-coitus combined with behavioral psychotherapy): about 3.63 minutes
